# Results from article PMC6437697 (Journal of Medicinal Chemistry, 2019).
# Experiments:
# Assay in all cases: KINOMEscan
# Assay type in all cases: binding
# Settings in all cases: read-out: % control activity remaining
# CAMK1 = molecular target: T1, CAMK1 (Homo sapiens, UniProt Q14012)
# T1 construct: purchased Eurofins DiscoverX KINOMEscan
# CAMK2B = molecular target: T2, CAMK2B (Homo sapiens, UniProt Q13554)
# T2 construct: purchased Eurofins DiscoverX KINOMEscan
# DAPK3 = molecular target: T3, DAPK3 (Homo sapiens, UniProt O43293)
# T3 construct: purchased Eurofins DiscoverX KINOMEscan
# T3 sequence (O43293 whole entry): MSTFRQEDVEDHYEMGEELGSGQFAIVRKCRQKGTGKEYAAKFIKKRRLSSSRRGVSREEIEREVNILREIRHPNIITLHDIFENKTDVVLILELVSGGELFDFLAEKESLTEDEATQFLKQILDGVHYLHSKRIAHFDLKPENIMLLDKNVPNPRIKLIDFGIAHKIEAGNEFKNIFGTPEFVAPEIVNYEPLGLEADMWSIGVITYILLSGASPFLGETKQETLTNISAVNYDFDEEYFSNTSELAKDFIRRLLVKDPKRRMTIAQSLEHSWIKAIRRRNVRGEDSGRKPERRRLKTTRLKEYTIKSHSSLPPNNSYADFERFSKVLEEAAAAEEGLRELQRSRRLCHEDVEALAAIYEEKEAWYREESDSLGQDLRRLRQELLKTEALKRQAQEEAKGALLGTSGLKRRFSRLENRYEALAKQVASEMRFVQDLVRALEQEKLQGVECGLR
# FES = molecular target: T4, FES (Homo sapiens, UniProt P07332)
# T4 construct: purchased Eurofins DiscoverX KINOMEscan
# T4 sequence (P07332 whole entry): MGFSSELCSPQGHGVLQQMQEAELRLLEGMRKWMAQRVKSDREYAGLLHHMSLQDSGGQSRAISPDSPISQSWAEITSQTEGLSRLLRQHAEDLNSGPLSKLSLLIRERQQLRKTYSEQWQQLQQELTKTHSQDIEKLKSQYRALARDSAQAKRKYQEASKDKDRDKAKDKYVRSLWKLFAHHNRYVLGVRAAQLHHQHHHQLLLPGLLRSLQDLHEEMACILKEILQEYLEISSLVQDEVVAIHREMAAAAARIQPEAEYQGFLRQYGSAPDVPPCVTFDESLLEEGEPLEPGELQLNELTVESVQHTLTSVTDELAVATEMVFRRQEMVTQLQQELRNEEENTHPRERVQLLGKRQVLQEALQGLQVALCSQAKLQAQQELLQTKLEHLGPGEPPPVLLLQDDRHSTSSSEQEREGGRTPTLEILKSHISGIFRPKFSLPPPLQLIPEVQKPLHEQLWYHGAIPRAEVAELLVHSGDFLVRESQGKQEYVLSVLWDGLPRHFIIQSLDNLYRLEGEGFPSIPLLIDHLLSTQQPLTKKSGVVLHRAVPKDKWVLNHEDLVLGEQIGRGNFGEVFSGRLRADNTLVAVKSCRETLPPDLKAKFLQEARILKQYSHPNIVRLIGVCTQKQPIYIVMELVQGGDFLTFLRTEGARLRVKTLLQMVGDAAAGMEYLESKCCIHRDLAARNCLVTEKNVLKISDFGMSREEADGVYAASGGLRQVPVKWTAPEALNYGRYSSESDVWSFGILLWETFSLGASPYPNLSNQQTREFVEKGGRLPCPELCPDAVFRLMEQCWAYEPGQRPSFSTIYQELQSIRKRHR
# FLT3-autoinhibited = molecular target: T5, FLT3-autoinhibited (Homo sapiens, UniProt P36888)
# T5 construct: purchased Eurofins DiscoverX KINOMEscan
# T5 sequence (P36888 564-993 limits assumed): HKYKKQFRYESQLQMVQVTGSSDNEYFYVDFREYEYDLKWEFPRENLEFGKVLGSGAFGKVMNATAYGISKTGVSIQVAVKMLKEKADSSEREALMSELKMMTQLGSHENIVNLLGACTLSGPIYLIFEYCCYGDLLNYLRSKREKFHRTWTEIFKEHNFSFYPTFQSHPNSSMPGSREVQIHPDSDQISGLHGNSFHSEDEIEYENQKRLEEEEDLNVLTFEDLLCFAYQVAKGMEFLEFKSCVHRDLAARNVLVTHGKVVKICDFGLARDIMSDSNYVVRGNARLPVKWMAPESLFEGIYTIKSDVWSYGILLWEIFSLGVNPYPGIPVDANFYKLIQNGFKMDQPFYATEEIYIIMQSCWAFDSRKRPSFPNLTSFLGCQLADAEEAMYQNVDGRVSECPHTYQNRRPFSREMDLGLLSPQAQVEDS
# IGF1R = molecular target: T6, IGF1R (Homo sapiens, UniProt P08069)
# T6 construct: purchased Eurofins DiscoverX KINOMEscan
# T6 sequence (P08069 31-1367 limits assumed): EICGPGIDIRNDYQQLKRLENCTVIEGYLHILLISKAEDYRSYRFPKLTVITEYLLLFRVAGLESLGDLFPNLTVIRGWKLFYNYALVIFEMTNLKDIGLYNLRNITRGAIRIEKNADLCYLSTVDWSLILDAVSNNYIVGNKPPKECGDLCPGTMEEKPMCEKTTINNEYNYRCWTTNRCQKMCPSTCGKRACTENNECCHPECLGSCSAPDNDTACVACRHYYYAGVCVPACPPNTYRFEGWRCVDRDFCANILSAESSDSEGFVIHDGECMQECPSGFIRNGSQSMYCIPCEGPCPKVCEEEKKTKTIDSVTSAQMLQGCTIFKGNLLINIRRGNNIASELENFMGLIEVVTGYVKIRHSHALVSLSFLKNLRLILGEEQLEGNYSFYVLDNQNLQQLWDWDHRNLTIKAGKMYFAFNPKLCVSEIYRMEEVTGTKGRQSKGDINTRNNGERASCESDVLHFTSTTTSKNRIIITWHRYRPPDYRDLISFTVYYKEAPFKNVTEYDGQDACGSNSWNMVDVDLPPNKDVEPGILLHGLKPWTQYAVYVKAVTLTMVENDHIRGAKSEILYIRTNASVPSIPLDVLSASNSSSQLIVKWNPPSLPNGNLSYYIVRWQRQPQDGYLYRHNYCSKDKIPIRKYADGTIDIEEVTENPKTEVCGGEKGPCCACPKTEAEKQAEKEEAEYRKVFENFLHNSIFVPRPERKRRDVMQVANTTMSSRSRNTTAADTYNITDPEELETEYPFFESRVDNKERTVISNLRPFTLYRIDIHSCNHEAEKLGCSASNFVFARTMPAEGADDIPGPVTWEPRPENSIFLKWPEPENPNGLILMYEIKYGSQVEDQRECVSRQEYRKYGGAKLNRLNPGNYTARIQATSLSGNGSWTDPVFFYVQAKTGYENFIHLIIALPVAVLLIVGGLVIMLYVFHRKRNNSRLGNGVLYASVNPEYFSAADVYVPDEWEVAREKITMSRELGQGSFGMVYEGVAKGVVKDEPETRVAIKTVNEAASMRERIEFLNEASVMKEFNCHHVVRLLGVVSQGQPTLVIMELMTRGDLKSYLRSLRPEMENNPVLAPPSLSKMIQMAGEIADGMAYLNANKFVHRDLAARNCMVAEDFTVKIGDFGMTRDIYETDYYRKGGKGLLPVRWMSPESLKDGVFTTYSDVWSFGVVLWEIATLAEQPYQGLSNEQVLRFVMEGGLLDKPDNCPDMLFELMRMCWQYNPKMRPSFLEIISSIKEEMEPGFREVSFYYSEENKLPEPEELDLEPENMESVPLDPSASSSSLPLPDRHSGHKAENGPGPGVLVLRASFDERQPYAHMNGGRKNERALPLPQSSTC
# INSRR = molecular target: T7, INSRR (Homo sapiens, UniProt P14616)
# T7 construct: purchased Eurofins DiscoverX KINOMEscan
# T7 sequence (P14616 27-1297): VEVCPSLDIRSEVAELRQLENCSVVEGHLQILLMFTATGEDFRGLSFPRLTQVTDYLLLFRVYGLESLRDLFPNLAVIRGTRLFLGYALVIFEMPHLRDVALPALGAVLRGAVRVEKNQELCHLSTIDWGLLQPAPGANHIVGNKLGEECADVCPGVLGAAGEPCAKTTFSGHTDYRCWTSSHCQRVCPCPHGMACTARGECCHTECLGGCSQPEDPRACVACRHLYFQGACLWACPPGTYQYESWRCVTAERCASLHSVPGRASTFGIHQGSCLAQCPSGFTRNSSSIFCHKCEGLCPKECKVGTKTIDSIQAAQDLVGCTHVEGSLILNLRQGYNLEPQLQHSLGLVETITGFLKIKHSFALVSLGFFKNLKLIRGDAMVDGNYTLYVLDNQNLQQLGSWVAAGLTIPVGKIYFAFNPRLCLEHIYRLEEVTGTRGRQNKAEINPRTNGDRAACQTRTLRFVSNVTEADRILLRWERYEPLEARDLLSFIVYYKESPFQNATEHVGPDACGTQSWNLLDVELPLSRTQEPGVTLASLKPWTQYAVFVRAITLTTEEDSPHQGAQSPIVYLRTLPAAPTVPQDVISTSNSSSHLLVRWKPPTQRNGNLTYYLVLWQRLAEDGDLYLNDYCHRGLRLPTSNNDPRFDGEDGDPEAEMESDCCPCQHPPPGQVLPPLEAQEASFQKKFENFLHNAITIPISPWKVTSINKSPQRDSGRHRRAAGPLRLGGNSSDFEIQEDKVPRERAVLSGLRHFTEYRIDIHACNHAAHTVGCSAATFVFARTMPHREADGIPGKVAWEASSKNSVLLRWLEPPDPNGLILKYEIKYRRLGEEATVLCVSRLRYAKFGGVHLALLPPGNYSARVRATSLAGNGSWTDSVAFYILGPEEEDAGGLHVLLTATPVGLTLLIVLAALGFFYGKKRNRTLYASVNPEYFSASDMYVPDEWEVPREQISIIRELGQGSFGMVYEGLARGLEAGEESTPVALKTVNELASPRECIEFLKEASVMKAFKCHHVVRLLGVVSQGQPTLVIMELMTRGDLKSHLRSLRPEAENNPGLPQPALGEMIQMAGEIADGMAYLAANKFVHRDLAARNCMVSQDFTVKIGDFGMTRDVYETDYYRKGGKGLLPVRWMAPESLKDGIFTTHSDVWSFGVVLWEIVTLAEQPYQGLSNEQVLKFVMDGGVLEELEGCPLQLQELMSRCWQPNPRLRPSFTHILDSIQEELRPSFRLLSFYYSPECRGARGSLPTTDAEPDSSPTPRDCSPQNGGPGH
# LATS2 = molecular target: T8, LATS2 (Homo sapiens, UniProt Q9NRM7)
# T8 construct: purchased Eurofins DiscoverX KINOMEscan
# T8 sequence (Q9NRM7 1-1088): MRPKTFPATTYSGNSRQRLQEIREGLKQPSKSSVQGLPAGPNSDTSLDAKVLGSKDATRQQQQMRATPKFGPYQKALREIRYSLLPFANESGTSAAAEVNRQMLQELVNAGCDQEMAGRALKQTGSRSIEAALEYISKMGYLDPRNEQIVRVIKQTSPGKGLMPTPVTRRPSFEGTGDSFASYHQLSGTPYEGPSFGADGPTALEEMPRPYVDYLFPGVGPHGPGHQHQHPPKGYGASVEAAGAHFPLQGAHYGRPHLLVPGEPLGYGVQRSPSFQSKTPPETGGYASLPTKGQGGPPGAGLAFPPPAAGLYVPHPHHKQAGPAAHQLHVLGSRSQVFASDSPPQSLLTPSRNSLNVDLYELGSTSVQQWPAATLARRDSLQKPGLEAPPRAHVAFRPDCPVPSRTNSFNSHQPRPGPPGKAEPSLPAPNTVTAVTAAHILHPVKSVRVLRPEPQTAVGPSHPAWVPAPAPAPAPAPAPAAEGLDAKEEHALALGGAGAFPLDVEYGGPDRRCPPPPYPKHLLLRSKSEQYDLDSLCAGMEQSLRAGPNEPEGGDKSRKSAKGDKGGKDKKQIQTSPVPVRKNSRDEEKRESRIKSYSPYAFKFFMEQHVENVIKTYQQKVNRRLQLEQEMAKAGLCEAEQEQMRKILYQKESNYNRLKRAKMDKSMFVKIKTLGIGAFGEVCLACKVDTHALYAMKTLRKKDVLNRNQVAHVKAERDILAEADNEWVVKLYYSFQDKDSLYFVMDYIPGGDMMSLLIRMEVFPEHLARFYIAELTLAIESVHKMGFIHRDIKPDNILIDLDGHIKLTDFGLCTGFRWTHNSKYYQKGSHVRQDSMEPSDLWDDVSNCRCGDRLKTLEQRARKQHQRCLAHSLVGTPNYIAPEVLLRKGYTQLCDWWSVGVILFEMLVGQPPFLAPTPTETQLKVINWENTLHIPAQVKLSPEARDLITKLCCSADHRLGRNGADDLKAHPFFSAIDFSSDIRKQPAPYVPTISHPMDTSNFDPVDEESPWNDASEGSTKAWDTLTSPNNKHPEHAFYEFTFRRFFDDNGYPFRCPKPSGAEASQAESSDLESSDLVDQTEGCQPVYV
# NEK5 = molecular target: T9, NEK5 (Homo sapiens, UniProt Q6P3R8)
# T9 construct: purchased Eurofins DiscoverX KINOMEscan
# T9 sequence (Q6P3R8 1-708): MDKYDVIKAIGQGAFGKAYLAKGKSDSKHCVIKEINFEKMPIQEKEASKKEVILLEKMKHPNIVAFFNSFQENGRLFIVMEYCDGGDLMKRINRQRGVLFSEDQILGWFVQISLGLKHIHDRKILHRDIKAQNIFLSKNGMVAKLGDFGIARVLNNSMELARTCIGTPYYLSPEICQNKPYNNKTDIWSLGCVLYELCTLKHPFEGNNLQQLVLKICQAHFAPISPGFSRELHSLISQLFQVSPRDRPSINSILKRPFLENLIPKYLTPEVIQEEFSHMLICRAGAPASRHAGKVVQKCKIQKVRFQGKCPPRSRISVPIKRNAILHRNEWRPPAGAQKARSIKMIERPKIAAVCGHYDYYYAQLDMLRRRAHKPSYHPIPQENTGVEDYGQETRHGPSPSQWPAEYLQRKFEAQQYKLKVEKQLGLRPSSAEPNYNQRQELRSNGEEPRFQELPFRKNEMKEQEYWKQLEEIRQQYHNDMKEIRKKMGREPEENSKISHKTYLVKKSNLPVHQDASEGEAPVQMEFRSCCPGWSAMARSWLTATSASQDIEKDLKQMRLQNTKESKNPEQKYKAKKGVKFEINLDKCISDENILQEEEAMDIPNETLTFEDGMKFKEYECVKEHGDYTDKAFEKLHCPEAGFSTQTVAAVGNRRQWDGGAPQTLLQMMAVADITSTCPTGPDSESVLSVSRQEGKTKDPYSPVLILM
# PAK7 = molecular target: T10, PAK7 (Homo sapiens, UniProt Q9P286)
# T10 construct: purchased Eurofins DiscoverX KINOMEscan
# T10 sequence (Q9P286 whole entry): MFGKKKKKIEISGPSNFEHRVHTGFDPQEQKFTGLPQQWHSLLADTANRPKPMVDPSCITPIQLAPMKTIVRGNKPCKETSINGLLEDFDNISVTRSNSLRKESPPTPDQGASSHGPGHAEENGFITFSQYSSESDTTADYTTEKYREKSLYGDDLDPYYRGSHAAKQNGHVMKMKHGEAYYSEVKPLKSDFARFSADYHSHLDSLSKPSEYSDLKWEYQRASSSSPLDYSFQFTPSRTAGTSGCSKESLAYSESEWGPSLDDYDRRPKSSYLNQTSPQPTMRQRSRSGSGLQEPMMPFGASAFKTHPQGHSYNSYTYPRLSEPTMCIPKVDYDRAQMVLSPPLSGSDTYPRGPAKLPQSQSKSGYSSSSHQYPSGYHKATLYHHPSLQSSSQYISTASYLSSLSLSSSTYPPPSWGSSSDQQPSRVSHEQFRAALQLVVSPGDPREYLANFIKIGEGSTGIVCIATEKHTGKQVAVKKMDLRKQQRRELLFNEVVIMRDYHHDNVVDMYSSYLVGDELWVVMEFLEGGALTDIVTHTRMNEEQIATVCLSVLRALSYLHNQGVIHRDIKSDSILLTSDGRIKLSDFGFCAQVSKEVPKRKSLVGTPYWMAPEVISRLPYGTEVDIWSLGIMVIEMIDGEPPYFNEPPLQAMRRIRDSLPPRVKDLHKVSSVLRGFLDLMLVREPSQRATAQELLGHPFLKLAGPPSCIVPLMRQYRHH
# PIP5K1A = molecular target: T11, PIP5K1A (Homo sapiens, UniProt Q99755)
# T11 construct: purchased Eurofins DiscoverX KINOMEscan
# PKN2 = molecular target: T12, PKN2 (Homo sapiens, UniProt Q16513)
# T12 construct: purchased Eurofins DiscoverX KINOMEscan
# ROS1 = molecular target: T13, ROS1 (Homo sapiens, UniProt P08922)
# T13 construct: purchased Eurofins DiscoverX KINOMEscan
# T1 sequence (Q14012 whole entry, looked up): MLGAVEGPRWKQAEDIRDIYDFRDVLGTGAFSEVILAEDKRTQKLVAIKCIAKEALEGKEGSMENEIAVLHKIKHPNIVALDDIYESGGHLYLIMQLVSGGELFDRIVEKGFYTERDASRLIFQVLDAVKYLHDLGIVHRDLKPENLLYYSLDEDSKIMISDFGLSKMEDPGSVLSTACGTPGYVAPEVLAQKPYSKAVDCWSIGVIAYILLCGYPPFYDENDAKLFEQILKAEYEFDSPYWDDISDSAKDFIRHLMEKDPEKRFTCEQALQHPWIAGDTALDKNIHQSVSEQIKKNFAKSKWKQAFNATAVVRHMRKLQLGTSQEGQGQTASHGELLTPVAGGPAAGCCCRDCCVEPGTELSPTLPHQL
SMILES,remaining binding at 1 µM (CAMK1),remaining binding at 1 µM (CAMK2B),remaining binding at 1 µM (DAPK3),remaining binding at 1 µM (FES),remaining binding at 1 µM (FLT3-autoinhibited),remaining binding at 1 µM (IGF1R),remaining binding at 1 µM (INSRR),remaining binding at 1 µM (LATS2),remaining binding at 1 µM (NEK5),remaining binding at 1 µM (PAK7),remaining binding at 1 µM (PIP5K1A),remaining binding at 1 µM (PKN2),remaining binding at 1 µM (ROS1)
"Clc1cc(NCC2CC2)c2ncc(-c3ccc4[nH]ncc4c3)n2n1 [compound 2, 6-Chloro-N-(cyclopropylmethyl)-3-(1H-indazol-5-yl)imidazo[1,2-b]pyridazin-8-amine]",100%,90%,85%,87%,42%,100%,96%,58%,93%,98%,100%,100%,100%
O=C(CN1CCOCC1)N[C@H]1CC[C@H](Nc2cc(Cl)nn3c(-c4ccc5[nH]ncc5c4)cnc23)CC1 [compound 26],77%,69%,34%,88%,0.65%,100%,85%,73%,86%,93%,80%,100%,100%
"CN1CCC(CNc2cc(Cl)nn3c(-c4cc5nc(Nc6ccccc6)[nH]c5cc4F)cnc23)CC1 [compound 31, 6-Chloro-3-(6-fluoro-2-(phenylamino)-1H-benzo[d]imidazol-5-yl)-N-((1-methylpiperidin-4-yl)methyl)imidazo[1,2-b]pyridazin-8-amine]",84%,100%,84%,96%,90%,95%,100%,94%,96%,95%,91%,98%,96%
